# Measured values as given in patent publication US20100317673A1, “N-HETEROCYCLIC-IMIDAZO[1,2-a]PYRIDINE-2-CARBOXAMIDE DERIVATIVES, THEIR PREPARATION AND THEIR THERAPEUTIC APPLICATION” (SANOFI-AVENTIS, priority 2008, published 2010).
# Molecular target: T1, mouse Nurr1 receptor (Mus musculus, UniProt Q06219)
# T1 construct: a cell line (N2A) endogenously expressing the mouse Nurr1 receptor; host or cells: Neuro-2A (N2A) mouse neuroblastoma cells stably transfected with 8NBRE-luciferase
# Assay: In vitro activity on N2A cells (NBRE-luciferase reporter)
# Format: cell-based
# Details: N2A (Neuro-2A) cells endogenously expressing mouse Nurr1, stably transfected with 8NBRE-luciferase; 24 hours incubation
# Method: The activity of the compounds according to the invention was evaluated on a cell line (N2A) endogenously expressing the mouse Nurr1 receptor and stably transfected with the NOT binding response element (NBRE) coupled to the luciferase reporter gene. The EC50 values are between 0.01 and 1000 nM. The assays were carried out according to the procedure described below.
# The Neuro-2A cell line comes from a standard commercial source (ATCC). The Neuro-2A clone was obtained, from a spontaneous tumour originating from an A albino mouse strain, by R. J Klebe et al. This Neuro-2A line is subsequently stably transfected with 8NBRE-luciferase. The N2A-8NBRE cells are cultured until confluence in 75 cm^2 culture flasks containing DMEM supplemented with 10% of foetal calf serum, 4.5 g/l of glucose and 0.4 mg/ml of geneticin. After a week of culture, the cells are recovered with 0.25% trypsin for 30 seconds and then resuspended in DMEM without phenol red, containing 4.5 g/l of glucose and 10% of Hyclone delipidized serum, and deposited into transparent-bottom 96-well white plates. The cells are deposited at a rate of 60 000 per well in 75 μl for 24 hours before the addition of the products. The products are applied in 25 μl and incubated for a further 24 hours. On the day of the measurement, an equivalent volume (100 μl) of Steadylite is added to each well and then left for a period of 30 minutes in order to obtain complete cell lysis and maximum signal production. The plates are subsequently measured in a luminescence counter for microplates after having been sealed with an adhesive film. The products are prepared in the form of a stock solution at 10^−2M and then diluted in 100% of DMSO. Each product concentration is prediluted in culture medium before incubation with the cells, thus containing 0.625% final concentration of DMSO.
# T1 sequence (Q06219 whole entry): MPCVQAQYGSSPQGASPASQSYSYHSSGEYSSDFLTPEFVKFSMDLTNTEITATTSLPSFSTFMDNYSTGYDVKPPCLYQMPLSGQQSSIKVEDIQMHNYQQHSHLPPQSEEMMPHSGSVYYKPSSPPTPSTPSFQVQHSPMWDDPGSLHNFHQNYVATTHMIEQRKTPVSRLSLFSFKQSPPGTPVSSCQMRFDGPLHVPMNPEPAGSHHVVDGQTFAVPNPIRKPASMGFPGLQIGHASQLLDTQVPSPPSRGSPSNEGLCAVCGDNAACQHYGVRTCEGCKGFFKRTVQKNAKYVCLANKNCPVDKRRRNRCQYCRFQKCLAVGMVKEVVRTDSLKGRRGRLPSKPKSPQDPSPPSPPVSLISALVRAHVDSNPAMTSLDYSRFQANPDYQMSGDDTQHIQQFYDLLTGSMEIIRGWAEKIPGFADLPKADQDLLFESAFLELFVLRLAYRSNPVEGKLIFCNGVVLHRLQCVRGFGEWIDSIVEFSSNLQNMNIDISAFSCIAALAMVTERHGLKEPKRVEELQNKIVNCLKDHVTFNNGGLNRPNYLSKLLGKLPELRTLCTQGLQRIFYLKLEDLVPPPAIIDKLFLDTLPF
row,SMILES,EC50 [nM]
1,"CN(C)c1ccc2nc(C(=O)Nc3ccon3)cn2c1 [Compound 39, 6-(Dimethylamino)-N-(isoxazol-3-yl)imidazo[1,2-a]pyridine-2-carboxamide]",10.5
2,"CN(C)c1ccc2nc(C(=O)Nc3ccccn3)cn2c1 [Compound 8, 6-(Dimethylamino)-N-(pyridin-2-yl)imidazo[1,2-a]pyridine-2-carboxamide]",0.5
3,"O=C(Nc1ccccn1)c1cn2cc(-c3cccc(CO)c3)ccc2n1 [Compound 7, 6-[3-(Hydroxymethyl)phenyl]-N-(pyridin-2-yl)imidazo[1,2-a]pyridine-2-carboxamide]",0.04
4,"O=C(Nc1ccccn1)c1cn2cc(Cl)ccc2n1 [Compound 4, 6-Chloro-N-(pyridin-2-yl)imidazo[1,2-a]pyridine-2-carboxamide]",2.2
